This experiment has as its target T1, Tumor necrosis factor receptor superfamily member 1A (Homo sapiens, UniProt P19438).
T1 sequence (P19438 whole entry): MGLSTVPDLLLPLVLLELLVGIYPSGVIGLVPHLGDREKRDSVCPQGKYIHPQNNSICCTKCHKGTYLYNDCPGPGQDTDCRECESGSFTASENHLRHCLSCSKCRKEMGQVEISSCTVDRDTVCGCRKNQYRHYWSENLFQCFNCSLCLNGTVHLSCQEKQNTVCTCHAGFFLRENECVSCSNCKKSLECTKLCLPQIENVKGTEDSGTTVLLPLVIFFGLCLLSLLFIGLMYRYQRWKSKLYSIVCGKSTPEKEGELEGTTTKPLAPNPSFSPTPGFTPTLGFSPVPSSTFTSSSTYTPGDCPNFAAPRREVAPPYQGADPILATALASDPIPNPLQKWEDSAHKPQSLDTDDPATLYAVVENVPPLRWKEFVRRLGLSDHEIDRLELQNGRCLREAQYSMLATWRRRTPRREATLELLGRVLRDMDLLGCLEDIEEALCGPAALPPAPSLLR
Description: ChEBML_212214. From the text:
Inhibition of TNF-alpha binding to TNFRc1

For two compounds, IC50 results are on record in BindingDB's records for doi:10.1016/s0960-894x(02)00941-1 (Bristol-Myers Squibb Pharmaceuticals, 2003).

As for `C=CCn1c(S)c2c(=C)c3c(OC)cc(OC)cc3n2c1=S` [2-Allyl-6,8-dimethoxy-9-methyl-imidazo[1,5-a]indole-1,3-dithione], half-maximal inhibition (IC50) was put at 210 nM. On to `C=CCn1c(S)c2c(=C)c3c(OC)cc(OC)cc3n2c1=O` [2-Allyl-6,8-dimethoxy-9-methyl-1-thioxo-1,2-dihydro-imidazo[1,5-a]indol-3-one], for which the IC50 – broadly, the point on the concentration scale where inhibition reaches its midpoint – was found to be 210 nM.
